Measurements published in ChEMBL document CHEMBL4028910, “Discovery of Small-Molecule Inhibitors of Ubiquitin Specific Protease 7 (USP7) Using Integrated NMR and in Silico Techniques” (J Med Chem, 2017).

Target: T1, Ubiquitin carboxyl-terminal hydrolase 7 (Homo sapiens, UniProt Q93009)
Assay: Inhibition of USP7 in human SJSA cells assessed as increase in ubiquitinated MDM2 level after 16 hrs in presence of MG132 by MSD assay
Format: cell-based

T1 sequence (Q93009 whole entry): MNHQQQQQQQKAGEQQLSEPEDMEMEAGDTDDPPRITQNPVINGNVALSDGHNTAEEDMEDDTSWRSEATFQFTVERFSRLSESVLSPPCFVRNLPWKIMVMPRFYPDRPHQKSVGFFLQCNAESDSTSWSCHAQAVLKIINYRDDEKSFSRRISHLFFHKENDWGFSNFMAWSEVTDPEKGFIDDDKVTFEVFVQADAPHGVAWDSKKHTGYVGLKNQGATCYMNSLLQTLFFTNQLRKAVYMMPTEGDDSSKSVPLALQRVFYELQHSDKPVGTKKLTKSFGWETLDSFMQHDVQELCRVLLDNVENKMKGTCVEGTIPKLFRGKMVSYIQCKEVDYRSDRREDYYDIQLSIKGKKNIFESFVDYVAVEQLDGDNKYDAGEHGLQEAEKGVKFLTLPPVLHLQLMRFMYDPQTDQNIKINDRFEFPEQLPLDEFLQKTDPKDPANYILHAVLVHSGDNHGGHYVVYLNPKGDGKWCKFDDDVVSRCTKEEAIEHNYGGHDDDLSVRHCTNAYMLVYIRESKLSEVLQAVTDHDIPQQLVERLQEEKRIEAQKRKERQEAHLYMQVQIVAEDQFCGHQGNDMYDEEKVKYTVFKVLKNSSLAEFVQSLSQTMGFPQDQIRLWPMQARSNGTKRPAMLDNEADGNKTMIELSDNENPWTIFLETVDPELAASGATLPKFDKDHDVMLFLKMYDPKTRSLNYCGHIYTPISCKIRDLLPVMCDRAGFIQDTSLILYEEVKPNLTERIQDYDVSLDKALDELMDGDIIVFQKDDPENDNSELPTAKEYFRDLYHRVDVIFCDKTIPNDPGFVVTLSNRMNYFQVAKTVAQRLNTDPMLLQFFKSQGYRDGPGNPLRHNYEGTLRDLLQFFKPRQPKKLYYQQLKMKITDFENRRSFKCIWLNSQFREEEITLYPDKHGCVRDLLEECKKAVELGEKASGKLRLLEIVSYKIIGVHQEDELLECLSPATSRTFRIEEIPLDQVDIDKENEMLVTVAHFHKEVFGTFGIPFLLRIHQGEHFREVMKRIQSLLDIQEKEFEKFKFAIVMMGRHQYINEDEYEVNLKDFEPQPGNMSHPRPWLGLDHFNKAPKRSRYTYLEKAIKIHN

EC50 [µM]	SMILES
37.5	CCc1c(-c2ccc(O)cc2)cnc(N)c1-c1cccc(C#N)c1
36.5	Nc1nc(N)c(-c2ccc(O)cc2)cc1-c1ccc(O)cc1

The next lines start with the molecule.

SMILES	EC50 [µM]
CCc1c(-c2ccc3[nH]ncc3c2)cnc(N)c1-c1ccc(O)cc1	0.3
CCc1c(-c2ccc(C(=O)NC)nc2)cnc(N)c1-c1ccc(O)cc1	2.58

Target: T1, Ubiquitin carboxyl-terminal hydrolase 7
Assay: Inhibition of native full length C-terminal USP7 (unknown origin) using ubiquitin-Rho110 as substrate incubated for 1 hr by fluorescence assay

IC50 [µM]	SMILES
5.2	CCc1c(-c2ccc(O)cc2)cnc(N)c1-c1cccc(C#N)c1
2.5	CCc1c(-c2ccc(O)cc2)cnc(N)c1-c1ccc(O)cc1
21.4	CC(C)c1c(-c2ccc(O)cc2)cnc(N)c1-c1ccc(O)cc1
9.6	CCc1c(-c2ccccc2)cnc(N)c1-c1ccc(O)cc1
0.48	CCc1c(-c2ccc3cn[nH]c3c2)cnc(N)c1-c1ccc(O)cc1
8.5	Nc1nc(N)c(-c2ccc(O)cc2)cc1-c1ccc(O)cc1
0.61	CCc1c(-c2ccc(O)cc2)cnc(N)c1-c1ccc2[nH]ncc2c1
7.6	Cc1c(-c2ccc(O)cc2)cnc(N)c1-c1ccc(O)cc1
2.5	CCc1c(-c2cccc(C#N)c2)cnc(N)c1-c1ccc(O)cc1
> 200	N#Cc1c(-c2ccc(O)cc2)cnc(N)c1-c1ccc(O)cc1
11.1	Nc1ncc(-c2ccc(O)cc2)cc1-c1ccc(O)cc1
22.4	CCc1c(-c2ccc(O)cc2)cnc(N)c1-c1ccccc1
13.6	CCCc1c(-c2ccc(O)cc2)cnc(N)c1-c1ccc(O)cc1

More lines, now with the values behind:

SMILES	IC50 [µM]
Oc1ccc(-c2nc(C3CCNCC3)co2)cc1	85.2
CC(=O)Nc1cccc(-c2cnc(N)c(-c3ccc(O)cc3)c2)c1	15.1
Oc1ccc(-c2ncc(C3CCNCC3)o2)c(F)c1	18.4
Oc1ccc(-c2nc(C3CCNC3)no2)cc1 (stereo unspecified)	132
Nc1ncc(-c2ccccc2Cl)cc1-c1ccc(O)cc1	33.2
CCc1c(-c2ccc(C(=O)NC)nc2)cnc(N)c1-c1ccc(O)cc1	1.34
Oc1ccc(-c2nc(C3CCNCC3)no2)cc1	97.7
CN1CCC(c2noc(-c3ccc(O)cc3)n2)CC1	79.2
Oc1ccc(-c2ncc(C3CCNCC3)o2)cc1	32.8
Fc1cccc(OCC2CCNCC2)c1	> 2000
CN1CCC(c2noc(-c3ccc(O)cc3)n2)C1 (stereo unspecified)	131
Oc1ccc(-c2cncc(-c3ccc(O)cc3)c2)cc1	> 50

Target: T1, Ubiquitin carboxyl-terminal hydrolase 7
Assay: Binding affinity to human His-tagged and [15N-13C-2H], delta1[13CH3]-Ile, [13CH3]-Leu/Val and [13CH3]-Met-labeled USP7-catalytic domain (208 to 554 residues) expressed in Escherichia coli Rosetta 2 (DE3) cells by 2D[1H-15N]-based TROSY spectrum NMR analysis

Kd [µM]	SMILES
12 to 27	Oc1ccc(-c2nc(C3CCNCC3)no2)cc1
12 to 27	CN1CCC(c2noc(-c3ccc(O)cc3)n2)CC1
